What was measured:
KB cells = test: Cell uptake of glucosamine conjugated SX compound by fluorescence microscopy and flow cytometry; format: cell-based; conditions: 30 μM, 30 minutes
Procedure: This example illustrates cell uptake of a biomolecule (glucosamine) conjugated SX compound, compound 67 in KB cells. KB cells were cultured in media for 2 h then incubated with 30 μM of compound 67 for 30 minutes before analysis of the cells by fluorescence microscopy and flow cytometry with appropriate filter sets for the two different fluorescent dyes. As a control, cells were also incubated with the commercial fluorescent glucosamine derivative 2-NBDG also at 30 μM.

[1] = Optical properties of silaxanthenium fluorochromes (absorption/emission maxima, relative brightness); format: physicochemical; conditions: for Abs. λmax / Em. Λmax: 1×PBS, 1 cm square cuvette; for Relative Fluorescence: brightness (fluorescence intensity / absorption at λmax) normalized to CY1, 1×PBS
From the text: The relative brightness is defined by the fluorescence intensity of a solution of the fluorochrome in a 1 cm square cuvette when excited at its wavelength of maximum absorption divided by the absorption of the same sample at the wavelength of maximum absorption. The three examples shown with a S atom in the X position of Formula II are red shifted about 20 nm relative to three examples with the S atom in the Y or Z positions.
This example summarizes in Table 3 the absorption and emission characteristics of some exemplary silaxanthenium (SX) fluorochromes relative to a cell impermeable cyanine dye (sulfonated Cy5 analog) CY1. Absorption and emission characteristics were measured in 1×PBS in a 1 cm square cuvette. Relative fluorescence (brightness) was measured as in Example 8 and normalized to that of compound CY1.

[2] = In vivo tomographic imaging (FMT 2500) after intravenous injection; conditions: 2 nmoles intravenous, SKH-1 E female mice
Procedure: Two SKH-1 E female mice (9 weeks old) were injected with 2 nmoles of compound 44. Tomographic images of the whole body of the mouse were taken at 1, 15, 30 and 45 minutes and 1, 2 and 3 hours.

4T1 cells = test: Cellular uptake and washout by flow cytometry and fluorescence microscopy; format: cell-based; conditions: for cellular uptake: 1 uM, 30 min, 37° C.; for dye still remaining after washout: 1.5 h washout, flow cytometry
Procedure: (§1) Two isomeric thienyl Si-Rho dyes 88 and 89, were synthesized using the methods described previously. The two isomeric compounds, which are of identical molecular weight and molecular formula, have absorption and emission maxima of 652 nm and 668 nm (88) and 667 nm and 681 nm (89). Compounds were analyzed with two different filter sets by flow cytometry and also by fluorescence microscopy for cellular uptake and washout. Trypsin EDTA-detached 4T1 at 0.5 mil cells/mL culture medium were incubated with 1 uM 88 or 89 for 30 min at 37° C. Cells were washed 1× with PBS and analyzed by flow cytometry with a 705/70 nm emission filter for 88 and a 712/21 nm emission filter for 89 and by fluorescence microscopy.

[3] = Absorption and emission maxima of two isomeric thienyl dyes; format: physicochemical
Procedure: as §1

chymotrypsin = test: Fluorescence activation of internally quenched probe upon protease cleavage; format: biochemical; conditions: 1×PBS, 37° C., 4 h
From the text: FIG. 6A illustrates fluorescence activation upon enzyme cleavage of an internally quenched pair of silaxanthenium fluorochromes separated by an enzyme cleavable peptide sequence (Compound 78). Compound 78 was synthesized by conjugating two carboxylic acid dyes to lysine side chain amines in the peptide sequence using HATU and triethylamine. The quenched probe was purified by HPLC. Absorbance and fluorescence, measured on a Cary 50 UV-vis spectrophotometer (Varian) and a Cary Eclipse fluorescence spectrophotometer, respectively, of the quenched (dashed lines) and activated (cleaved by chymotrypsin in 1×PBS, solid lines) fluorochromes are shown in FIG. 6B.
A 22-fold increase in fluorescence intensity was observed. […] Trypsin EDTA-detached 4T1 were seeded in a 6-well tissue culture plate at 0.5 mil cells/2 mL of culture medium were incubated with 1 or 5 uM of 92, 93, or 91 for 21 h at 37° C. Cells were washed 1× with PBS, detached, and analyzed by FC and FLM (Cy5 filter). […] Trypsin EDTA-detached 4T1 cells were implanted 1.5 mil/site approximately 1 week prior to imaging. 92 was injected retro-orbitally at 4 nmol and imaged by FMT at 5 and 24 h.

SMILES | Abs. λmax [1] [nm] | Em. Λmax [1] [nm] | Relative Fluorescence [1] | also measured
O=[N+]([O-])c1ccc(N[C@H]2C(O)O[C@H](CO)[C@@H](O)[C@@H]2O)c2nonc12 (stereo partly shown) [Compound 2-NBDG, reference compound] | – | – | – | cell uptake (KB cells): taken up by the cells; quantification of cell fluorescence by flow cytometry (KB cells): in normal analysis range
Cc1csc(C(=O)O)c1C1=C2C=CC(=[N+](C)C)C=C2[Si](C)(C)c2cc(N(C)C)ccc21 [Compound 17, 3,6-bis(dimethylamino)-9-(2-carboxy-4-methyl-thien-3-yl)-10,10-dimethyl-10-silaxanthenium chloride] | 649 | 666 | 1.11 | –
Cc1c(C2=C3C=CC(=[N+](C)C)C=C3[Si](C)(C)c3cc(N(C)C)ccc32)csc1C(=O)O [Compound 18, 3,6-bis(dimethylamino)-9-(2-carboxy-3-methyl-thien-4-yl)-10,10-dimethyl-10-silaxanthenium chloride] | 653 | 668 | 1.02 | –
Cc1cc(C(=O)O)ccc1C1=C2C=CC(=[N+]3CCCC3)C=C2[Si](C)(C)c2cc(N3CCCC3)ccc21 [Compound 44, 3,6-bis(pyrridolin-1-yl)-9-(2-methyl-4-carboxyphenyl)-10,10-dimethyl-10-silaxanthenium] | 655 | 669 | 1.54 | wash out of the untargeted compound [2]: ≤ 3 h; biodistribution by tomographic imaging ([2]; imaged 1 minute to 3 hours): Rapid accumulation of the fluorochrome compound can be seen in the heart region followed by slower accumulation to other areas of the body
Cc1cc(C(=O)O)ccc1C1=C2C=CC(=[N+]3CCOCC3)C=C2[Si](C)(C)c2cc(N3CCOCC3)ccc21 [Compound 45, 3,6-bis(morpholino)-9-(2-methyl-4-carboxyphenyl)-10,10-dimethyl-10-silaxanthenium] | 651 | 670 | 0.75 | –
CN(C)c1ccc2c(c1)[Si](C)(C)C1=CC(=[N+](C)C)C=CC1=C2c1ccc(C(=O)O)s1 [Compound 65, 3,6-bis(dimethylamino)-9-(2-carboxy-thien-5-yl)-10,10-dimethyl-10-silaxanthenium chloride] | 669 | 683 | 0.05 | –
Cc1c(C(=O)O)sc(C2=C3C=CC(=[N+](C)C)C=C3[Si](C)(C)c3cc(N(C)C)ccc32)c1Br [Compound 66] | – | – | – | red shift ([1]; relative to compound 17 (S moved from Z to X position, bromine substituent added)): 23 nm
Cc1cc(C(=O)N[C@@H]2[C@@H](O)[C@H](O)[C@@H](CO)O[C@@H]2O)ccc1C1=C2C=CC(=[N+]3CCCC3)C=C2[Si](C)(C)c2cc(N3CCCC3)ccc21 [Compound 67] | – | – | – | cell uptake (KB cells): taken up by the cells; quantification of cell fluorescence by flow cytometry (KB cells): detector saturation
Cc1ccccc1C1=C2C=CC(=[N+](C)C)C=C2[Si](C)(C)c2cc(N(C)C)ccc21 [Compound 77] | 650 | 666 | 1.20 | –
CN(C)c1ccc2c(c1)[Si](C)(C)c1cc(N(C)C)ccc1[C+]2c1ccsc1 [Compound 88] | – | – | – | cellular uptake (4T1 cells): Significant uptake; dye still remaining after washout (4T1 cells): approximately one third; absorption maximum [3]: 652 nm; emission maximum [3]: 668 nm
CN(C)c1ccc2c(c1)[Si](C)(C)c1cc(N(C)C)ccc1[C+]2c1cccs1 [Compound 89] | – | – | – | cellular uptake (4T1 cells): Significant uptake; dye still remaining after washout (4T1 cells): approximately one third; absorption maximum [3]: 667 nm; emission maximum [3]: 681 nm
CC(C)C[C@@H](NC(=O)[C@@H](Cc1ccccc1)NC(=O)CNC(=O)[C@@H](CCCCNC(=O)c1cc(C2=C3C=CC(=[N+](C)C)C=C3[Si](C)(C)c3cc(N(C)C)ccc32)c(C(=O)[O-])s1)NC(=O)CCC(=O)O)C(=O)NCC(=O)N[C@H](CCCCNC(=O)c1cc(C2=C3C=CC(=[N+](C)C)C=C3[Si](C)(C)c3cc(N(C)C)ccc32)c(C(=O)[O-])s1)C(N)=O [Compound 91] | – | – | – | increase in fluorescence intensity (chymotrypsin): 22 fold

— patent publication US9649389B2, “Substituted silaxanthenium red to near-infrared fluorochromes for in vitro and in vivo imaging and detection” (VisEn Medical, Inc., priority 2013, dated 2017)
